Patent publication US20230356105A1, “TETRAAZADODECANE BASED CHELATING AGENTS FOR SEPARATION OF RARE EARTH ELEMENTS AND METHOD THEREFOR” (Ustav Organicke Chemie a Biochemie AV CR V.V.I., priority 2020, published 2023)
Several values for one entry are separate records, joined by “and”; a condition that tells them apart may be missing. Identical values can stand only once.

Assay: Separation of Nd/Pr/Tb/Dy mixture by repeated precipitation using L5 and α-HIBA (Example 24)
Format: physicochemical
Experimental: The reaction mixture was prepared by pipetting the following aqueous stock solutions into a 20 mL glass vial: • 1. 476 μL 246 mM aqueous chelator L5 • 2. 606 μL 175.5 mM aqueous LnCl3 solution (from a stock solution containing a mixture of Ln =Nd, Pr, Tb, and Dy, in a ratio of 3.3:1:1:1, Nd:Pr:Tb:Dy) • 3. 41.6 μL 2560 mM aqueous α-HIBA pH=6.5 • 4. 4103 μL water • 5. 1733 μL 3.0 M MOPS pH=7
The total reaction volume was 7.0 mL. Three identical reaction mixtures were prepared. A PTFE-coated stir bar was added to each vial; the vials were capped and stirred on a magnetic stirrer at room temperature. After 18 hours, a 200 μL aliquot of the reaction mixture was taken from each vial. This was centrifuged in a 2 mL plastic Eppendorf centrifuge tube, and the supernatant was carefully pipetted from the sample and transferred to a new set of tubes. The precipitate was dissolved by addition of 200 μL 1 M HCl, and the absolute concentration of each of the four lanthanides (Nd, Pr, Tb, and Dy) in each sample of the supernatant and precipitate was determined by ICP-OES. The remaining reaction mixtures from each vial were individually centrifuged in 15 mL plastic centrifuge tubes to separate the precipitate from the supernatant. The supernatant was discarded. Each precipitate was dissolved by addition of 2 mL 1 M HCl and heating to 80° C. for 1 hour. After dissolution, the acidic solutions were transferred to clean 20 mL glass vials with one PTFE-coated magnetic stir bar each. To each solution was added, in order: 2037 μL water, 40.4 μL 2560 mM aqueous α-HIBA pH =6.5, 1723 μL 3 M aqueous MOPS pH=7, and 1000 μL 2 M NaOH. These solutions were capped and stirred on a magnetic stirrer at room temperature. After 18 hours, a 200 μL aliquot of the reaction mixture was again taken from each and treated for ICP-OES analysis as before. Once again, the remaining reaction mixtures from each vial were individually centrifuged in 15 mL plastic centrifuge tubes to separate the precipitate from the supernatant. The supernatant was discarded. Each precipitate was dissolved by addition of 1 mL 1M HCl and heating to 80° C. for 1 hour. After dissolution, the acidic solutions were transferred to clean 20 mL glass vials with one PTFE-coated magnetic stir bar each. To each solution was added, in order: 3376 μL water, 51.6 μL 2560 mM aqueous α-HIBA pH =6.5, 1672 μL 3 M aqueous MOPS pH=7, and 500 μL 2 M NaOH. These solutions were capped and stirred on a magnetic stirrer at room temperature. After 18 hours, a final 200 μL aliquot of the reaction mixture was again taken from each vial and treated for ICP-OES analysis as before.

[1] = series A (first precipitation, 18 hours), individual samples A1-A3
[2] = series B (repeated precipitation), individual samples B1-B3
[3] = series C (repeated precipitation), individual samples C1-C3

O=C(O)CN1CCN(CC(=O)O)CCN(Cc2cccc3ccccc23)CCN(CC(=O)O)CC1 [L5, 2,2′,2″-(10-(naphthalene-1-ylmethyl)-1,4,7,10-tetraazacyklododekane-1,4,7-triyl)triacetic acid]
avg composition of precipitate, Dy (series A): 6.3% | avg composition of precipitate, Nd (series A): 67.2% | avg composition of precipitate, Pr (series A): 18.2% | avg composition of precipitate, Tb (series A): 8.2% | avg composition of supernatant, Dy (series A): 43.8% | avg composition of supernatant, Nd (series A): 21.4% | avg composition of supernatant, Pr (series A): 3.2% | avg composition of supernatant, Tb (series A): 31.6% | precipitate concentration Dy [1]: 0.81 mM and 0.82 mM (2×) | precipitate concentration Nd [1]: 8.82 mM and 8.69 mM and 8.55 mM | precipitate concentration Pr [1]: 2.39 mM and 2.35 mM and 2.32 mM | precipitate concentration Tb [1]: 1.05 mM and 1.07 mM and 1.06 mM | supernatant concentration Dy [1]: 1.69 mM and 1.65 mM and 1.68 mM | supernatant concentration Nd [1]: 0.85 mM and 0.90 mM and 0.70 mM | supernatant concentration Pr [1]: 0.12 mM and 0.15 mM and 0.09 mM | supernatant concentration Tb [1]: 1.23 mM and 1.19 mM and 1.20 mM | precipitate concentration Dy, avg (series A avg): 0.81 mM | precipitate concentration Nd, avg (series A avg): 8.68 mM | precipitate concentration Pr, avg (series A avg): 2.35 mM | precipitate concentration Tb, avg (series A avg): 1.06 mM | supernatant concentration Dy, avg (series A avg): 1.67 mM | supernatant concentration Nd, avg (series A avg): 0.82 mM | supernatant concentration Pr, avg (series A avg): 0.12 mM | supernatant concentration Tb, avg (series A avg): 1.21 mM | avg composition of precipitate, Dy (series B): 2.0% | avg composition of precipitate, Nd (series B): 73.4% | avg composition of precipitate, Pr (series B): 20.6% | avg composition of precipitate, Tb (series B): 4.0% | avg composition of supernatant, Dy (series B): 28.7% | avg composition of supernatant, Nd (series B): 34.0% | avg composition of supernatant, Pr (series B): 3.1% | avg composition of supernatant, Tb (series B): 34.1% | precipitate concentration Dy [2]: 0.20 mM and 0.21 mM and 0.22 mM | precipitate concentration Nd [2]: 7.54 mM and 7.82 mM and 8.02 mM | precipitate concentration Pr [2]: 2.11 mM and 2.20 mM and 2.24 mM | precipitate concentration Tb [2]: 0.41 mM and 0.42 mM and 0.45 mM | supernatant concentration Dy [2]: 0.50 mM and 0.52 mM and 0.54 mM | supernatant concentration Nd [2]: 0.65 mM and 0.60 mM and 0.59 mM | supernatant concentration Pr [2]: 0.06 mM and 0.05 mM (2×) | supernatant concentration Tb [2]: 0.60 mM and 0.61 mM and 0.64 mM | precipitate concentration Dy, avg (series B avg): 0.21 mM | precipitate concentration Nd, avg (series B avg): 7.80 mM | precipitate concentration Pr, avg (series B avg): 2.18 mM | precipitate concentration Tb, avg (series B avg): 0.42 mM | supernatant concentration Dy, avg (series B avg): 0.52 mM | supernatant concentration Nd, avg (series B avg): 0.61 mM | supernatant concentration Pr, avg (series B avg): 0.06 mM | supernatant concentration Tb, avg (series B avg): 0.62 mM | avg composition of precipitate, Dy (series C): 0.5% | avg composition of precipitate, Nd (series C): 75.6% | avg composition of precipitate, Pr (series C): 22.1% | avg composition of precipitate, Tb (series C): 1.8% | avg composition of supernatant, Dy (series C): 10.4% | avg composition of supernatant, Nd (series C): 61.4% | avg composition of supernatant, Pr (series C): 6.5% | avg composition of supernatant, Tb (series C): 21.6% | precipitate concentration Dy [3]: 0.03 mM and 0.04 mM (2×) | precipitate concentration Nd [3]: 6.34 mM and 6.40 mM and 6.17 mM | precipitate concentration Pr [3]: 1.85 mM and 1.87 mM and 1.80 mM | precipitate concentration Tb [3]: 0.15 mM (2×) and 0.16 mM | supernatant concentration Dy [3]: 0.12 mM (2×) and 0.13 mM | supernatant concentration Nd [3]: 0.67 mM and 0.68 mM and 0.83 mM | supernatant concentration Pr [3]: 0.07 mM (2×) and 0.10 mM | supernatant concentration Tb [3]: 0.24 mM and 0.25 mM and 0.27 mM | precipitate concentration Dy, avg (series C avg): 0.04 mM | precipitate concentration Nd, avg (series C avg): 6.30 mM | precipitate concentration Pr, avg (series C avg): 1.84 mM | precipitate concentration Tb, avg (series C avg): 0.15 mM | supernatant concentration Dy, avg (series C avg): 0.12 mM | supernatant concentration Nd, avg (series C avg): 0.73 mM | supernatant concentration Pr, avg (series C avg): 0.08 mM | supernatant concentration Tb, avg (series C avg): 0.26 mM
